# From patent US20250064789A1, “KETOAMIDE DERIVATIVES AND PHARMACEUTICAL USES THEREOF” (priority 2022, published 2025)
# Target: recombinant SARS-CoV-2 M^pro (Severe acute respiratory syndrome coronavirus 2 (2019-nCoV) (SARS-CoV-2), UniProt P0DTD1)
# Test: Inhibition of SARS-CoV-2 M^pro enzyme activity (fluorescent substrate assay)
# Format: biochemical
# Conditions: inhibition of SARS-CoV-2 M^pro enzyme activity; values given in μM; read-out: IC50
row,SMILES,IC50
1,Cc1cccc(CNC(=O)C(=O)[C@@H](Cc2ccccc2)NC(=O)[C@@H](C)OCc2ccccc2)n1 [Compound 28],> 5 µM
2,C[C@@H](OCc1ccccc1)C(=O)N[C@H](Cc1ccccc1)C(=O)C(=O)NCc1ncccn1 [Compound 29],> 5 µM
3,C[C@@H](OCc1ccccc1)C(=O)N[C@H](Cc1ccccc1)C(=O)C(=O)NCc1ccncn1 [Compound 30],> 5 µM
4,C[C@@H](OCc1ccccc1)C(=O)N[C@H](Cc1ccccc1)C(=O)C(=O)N[C@H](C)c1ccccn1 [Compound 31],> 5 µM
5,C[C@@H](OCc1ccccc1)C(=O)N[C@H](Cc1ccccc1)C(=O)C(=O)NC(c1ccccc1)c1ccccn1 (stereo partly drawn) [Compound 32],> 5 µM
6,C[C@@H](OCc1ccccc1)C(=O)N[C@H](Cc1ccccc1)C(=O)C(=O)NCc1ncccc1Cl [Compound 34],> 5 µM
7,COc1cccnc1CNC(=O)C(=O)[C@@H](Cc1ccccc1)NC(=O)[C@@H](C)OCc1ccccc1 [Compound 39],> 5 µM
8,C[C@@H](OCc1ccccc1)C(=O)N[C@H](Cc1ccccc1)C(=O)C(=O)N(C)Cc1ccccn1 [Compound 41],> 2.5 µM

# Same assay, conditions: inhibition of SARS-CoV-2 M^pro enzyme activity; values in nM; read-out: IC50
row,SMILES,IC50
1,"C[C@@H](OCc1ccccc1)C(=O)N[C@H](Cc1ccccc1)C(=O)C(=O)NCc1ccccn1 [Compound 1, (R)-3-((R)-2-(benzyloxy)propionamido)-2-oxo-4-phenyl-N-(pyridin-2-ylmethyl)butyramide]",0.0146 ± 0.0013 µM
2,C[C@@H](OCc1cc(F)cc(F)c1)C(=O)N[C@H](Cc1ccccc1)C(=O)C(=O)NCc1ccccn1 [Compound 2],0.0176 ± 0.0004 µM
3,C[C@@H](OCc1c(F)cccc1F)C(=O)N[C@H](Cc1ccccc1)C(=O)C(=O)NCc1ccccn1 [Compound 3],0.411 ± 0.0282 µM
4,C[C@@H](OCc1ccc(OC(F)(F)F)cc1)C(=O)N[C@H](Cc1ccccc1)C(=O)C(=O)NCc1ccccn1 [Compound 4],0.0204 ± 0.0018 µM
5,C[C@@H](OCc1cccc(OC(F)(F)F)c1)C(=O)N[C@H](Cc1ccccc1)C(=O)C(=O)NCc1ccccn1 [Compound 5],0.0154 ± 0.0007 µM
6,C[C@@H](OCc1ccccc1F)C(=O)N[C@H](Cc1ccccc1)C(=O)C(=O)NCc1ccccn1 [Compound 6],0.0483 ± 0.0012 µM
7,C[C@@H](OCc1cccc(F)c1)C(=O)N[C@H](Cc1ccccc1)C(=O)C(=O)NCc1ccccn1 [Compound 7],0.0285 ± 0.0009 µM
8,C[C@@H](OCc1ccc(F)cc1)C(=O)N[C@H](Cc1ccccc1)C(=O)C(=O)NCc1ccccn1 [Compound 9],0.0121 ± 0.0025 µM
9,C[C@H](OCc1ccccc1)C(=O)N[C@H](Cc1ccccc1)C(=O)C(=O)NCc1ccccn1 [Compound 10],0.113 ± 0.0321 µM
10,C[C@@H](OCc1ccc(Cl)c(Cl)c1)C(=O)N[C@H](Cc1ccccc1)C(=O)C(=O)NCc1ccccn1 [Compound 12],0.0123 ± 0.0008 µM
11,C[C@@H](OCc1ccc(Cl)cc1)C(=O)N[C@H](Cc1ccccc1)C(=O)C(=O)NCc1ccccn1 [Compound 13],0.0143 ± 0.0004 µM
12,Cc1ccc(CO[C@H](C)C(=O)N[C@H](Cc2ccccc2)C(=O)C(=O)NCc2ccccn2)cc1 [Compound 14],0.0193 ± 0.0028 µM
13,C[C@@H](OCc1cc(F)cc(Cl)c1)C(=O)N[C@H](Cc1ccccc1)C(=O)C(=O)NCc1ccccn1 [Compound 15],0.0098 ± 0.0001 µM
14,COc1ccc(CO[C@H](C)C(=O)N[C@H](Cc2ccccc2)C(=O)C(=O)NCc2ccccn2)cc1F [Compound 16],0.0189 ± 0.0017 µM
15,CC(C)(OCc1ccc(OC(F)(F)F)cc1)C(=O)N[C@H](Cc1ccccc1)C(=O)C(=O)NCc1ccccn1 [Compound 17],0.0198 ± 0.0002 µM
16,CC(C)(OCc1ccc(Cl)cc1)C(=O)N[C@H](Cc1ccccc1)C(=O)C(=O)NCc1ccccn1 [Compound 18],0.0137 ± 0.002 µM
17,CC(C)(OCc1cc(F)cc(Cl)c1)C(=O)N[C@H](Cc1ccccc1)C(=O)C(=O)NCc1ccccn1 [Compound 19],0.0452 ± 0.0012 µM
18,CC(C)(OCc1ccc(F)c(F)c1)C(=O)N[C@H](Cc1ccccc1)C(=O)C(=O)NCc1ccccn1 [Compound 20],0.0152 ± 0.0002 µM
19,COc1ccc(COC(C)(C)C(=O)N[C@H](Cc2ccccc2)C(=O)C(=O)NCc2ccccn2)cc1F [Compound 21],0.0269 ± 0.0039 µM
20,CC(C)(OCc1ccc(F)cc1)C(=O)N[C@H](Cc1ccccc1)C(=O)C(=O)NCc1ccccn1 [Compound 22],0.0186 ± 0.0017 µM

row,SMILES,IC50
1,O=C(NCc1ccccn1)C(=O)[C@@H](Cc1ccccc1)NC(=O)C1(OCc2ccc(Cl)cc2)CC1 [Compound 25],0.0249 ± 0.0003 µM
2,CC(C)[C@@H](OCc1ccc(F)cc1)C(=O)N[C@H](Cc1ccccc1)C(=O)C(=O)NCc1ccccn1 [Compound 26],0.0139 ± 0.0002 µM
3,C[C@@H](OCc1ccccc1)C(=O)N[C@H](Cc1ccccc1)C(=O)C(=O)NCc1cnccn1 [Compound 27],0.8858 ± 0.0002 µM
4,C[C@@H](OCc1ccccc1)C(=O)N[C@H](Cc1ccccc1)C(=O)C(=O)NCc1ccc(Cl)cn1 [Compound 36],0.0309 ± 0.0002 µM
5,C[C@@H](OCc1ccccc1)C(=O)N[C@H](Cc1ccccc1)C(=O)C(=O)NCc1ccc(C(F)(F)F)cn1 [Compound 38],0.7963 ± 0.0011 µM
6,C[C@@H](OCc1ccc(F)cc1)C(=O)N[C@H](Cc1ccccc1)C(=O)C(=O)NCc1ccc(Cl)cn1 [Compound 42],0.0176 ± 0.0004 µM
7,CC(C)(OCc1ccc(Cl)cc1)C(=O)N[C@H](Cc1ccccc1)C(=O)C(=O)NCc1ccc(Cl)cn1 [Compound 43],0.0202 ± 0.0025 µM
8,C[C@@H](OCc1ccc(Cl)c(Cl)c1)C(=O)N[C@H](Cc1ccccc1)C(=O)C(=O)NCc1ccc(Cl)cn1 [Compound 44],0.0217 ± 0.0021 µM
9,C[C@@H](OCc1ccc(Cl)cc1)C(=O)N[C@H](Cc1ccccc1)C(=O)C(=O)NCc1ccc(Cl)cn1 [Compound 45],0.0147 ± 0.001 µM
10,C[C@@H](OCc1cc(F)cc(Cl)c1)C(=O)N[C@H](Cc1ccccc1)C(=O)C(=O)NCc1ccc(Cl)cn1 [Compound 46],0.0133 ± 0.0001 µM
11,C[C@@H](OCc1cccc(OC(F)(F)F)c1)C(=O)N[C@H](Cc1ccccc1)C(=O)C(=O)NCc1ccc(Cl)cn1 [Compound 47],0.0141 ± 0.0001 µM
12,CC[C@@H](OCc1ccc(F)cc1)C(=O)N[C@H](Cc1ccccc1)C(=O)C(=O)NCc1ccc(Cl)cn1 [Compound 48],0.0309 ± 0.0003 µM
13,CC(C)[C@@H](OCc1ccc(F)cc1)C(=O)N[C@H](Cc1ccccc1)C(=O)C(=O)NCc1ccc(Cl)cn1 [Compound 49],0.0147 ± 0.0004 µM
14,C[C@@H](OCc1ccc(F)cc1)C(=O)N[C@H](Cc1ccc2ccccc2c1)C(=O)C(=O)NCc1ccc(Cl)cn1 [Compound 53],0.1878 ± 0.0007 µM
15,O=C(COc1ccc(F)cc1)N[C@H](Cc1ccccc1)C(=O)C(=O)NCc1ccccn1 [Compound 54],0.2984 ± 0.0029 µM
16,COc1ccc(OC(C)C(=O)N[C@H](Cc2ccccc2)C(=O)C(=O)NCc2ccccn2)cc1 (stereo partly drawn) [Compound 57],0.351 ± 0.0068 µM
17,"CN(OCc1ccccc1)C(=O)N[C@H](Cc1ccccc1)C(=O)C(=O)NCc1ccccn1 [Compound 58, (R)-3-(3-(benzyloxy)-3-methylureido)-2-oxo-4-phenyl-N-(pyridin-2-ylmethyl)butyramide]",0.1009 ± 0.0001 µM
18,C[C@@H](NC(=O)c1ccc(F)cc1)C(=O)N[C@H](Cc1ccccc1)C(=O)C(=O)NCc1ccc(Cl)cn1 [Compound 59],0.0266 ± 0.0018 µM
19,C[C@@H](NC(=O)c1cc(F)cc(Cl)c1)C(=O)N[C@H](Cc1ccccc1)C(=O)C(=O)NCc1ccc(Cl)cn1 [Compound 60],0.0249 ± 0.0001 µM
20,C[C@@H](NC(=O)COc1ccccc1)C(=O)N[C@H](Cc1ccccc1)C(=O)C(=O)NCc1ccccn1 [Compound 61],0.0118 ± 0.0001 µM

row,SMILES,IC50
1,C[C@@H](NC(=O)Cc1cc2ccccc2o1)C(=O)N[C@H](Cc1ccccc1)C(=O)C(=O)NCc1ccccn1 [Compound 62],0.0278 ± 0.0009 µM
2,COc1ccc(CCCC(=O)N[C@H](C)C(=O)N[C@H](Cc2ccccc2)C(=O)C(=O)NCc2ccccn2)cc1 [Compound 63],0.0196 ± 0.0003 µM
3,C[C@@H](NC(=O)Cc1cc(C(C)(C)C)nn1-c1ccccc1)C(=O)N[C@H](Cc1ccccc1)C(=O)C(=O)NCc1ccccn1 [Compound 64],0.0161 ± 0.0002 µM
4,C[C@@H](NC(=O)C(C#N)Cc1ccccc1)C(=O)N[C@H](Cc1ccccc1)C(=O)C(=O)NCc1ccccn1 (stereo partly drawn) [Compound 65],0.0212 ± 0.0008 µM
5,C[C@@H](NC(=O)CCc1ccccc1)C(=O)N[C@H](Cc1ccccc1)C(=O)C(=O)NCc1ccccn1 [Compound 66],0.0117 ± 0.0001 µM
6,COc1ccc(CCC(=O)N[C@H](C)C(=O)N[C@H](Cc2ccccc2)C(=O)C(=O)NCc2ccccn2)cc1 [Compound 67],0.0173 ± 0.0016 µM
7,CC(C)c1ccc(OCC(=O)N[C@H](C)C(=O)N[C@H](Cc2ccccc2)C(=O)C(=O)NCc2ccccn2)cc1 [Compound 68],0.0124 ± 0.0011 µM
8,C[C@@H](NC(=O)COc1ccc(OC(F)(F)F)cc1)C(=O)N[C@H](Cc1ccccc1)C(=O)C(=O)NCc1ccccn1 [Compound 69],0.0177 ± 0.0015 µM
9,C[C@@H](NC(=O)COc1ccccc1F)C(=O)N[C@H](Cc1ccccc1)C(=O)C(=O)NCc1ccccn1 [Compound 70],0.0229 ± 0.0003 µM
10,C[C@@H](NC(=O)COc1ccc(Cl)c(Cl)c1)C(=O)N[C@H](Cc1ccccc1)C(=O)C(=O)NCc1ccccn1 [Compound 71],0.0109 ± 0.0005 µM
11,C[C@@H](NC(=O)c1cc2ccccc2o1)C(=O)N[C@H](Cc1ccccc1)C(=O)C(=O)NCc1ccccn1 [Compound 72],0.0277 ± 0.0041 µM
12,C[C@@H](NC(=O)C(C)(C)c1ccccc1)C(=O)N[C@H](Cc1ccccc1)C(=O)C(=O)NCc1ccccn1 [Compound 73],0.0258 ± 0.0005 µM
13,C[C@@H](NC(=O)C1(c2ccccc2)CC1)C(=O)N[C@H](Cc1ccccc1)C(=O)C(=O)NCc1ccccn1 [Compound 74],0.0233 ± 0.0004 µM
14,C[C@@H](NC(=O)Cc1ccc(F)cc1)C(=O)N[C@H](Cc1ccccc1)C(=O)C(=O)NCc1ccccn1 [Compound 75],0.0193 ± 0.0007 µM
15,C[C@@H](NC(=O)Cc1ccc(Cl)cc1)C(=O)N[C@H](Cc1ccccc1)C(=O)C(=O)NCc1ccccn1 [Compound 76],0.023 ± 0.0011 µM
16,COc1ccc(CC(=O)N[C@H](C)C(=O)N[C@H](Cc2ccccc2)C(=O)C(=O)NCc2ccccn2)cc1 [Compound 77],0.0241 µM
17,C[C@@H](NC(=O)Cc1ccc(C(F)(F)F)cc1)C(=O)N[C@H](Cc1ccccc1)C(=O)C(=O)NCc1ccccn1 [Compound 78],0.0532 ± 0.0005 µM
18,C[C@@H](NC(=O)Cc1cc(F)cc(F)c1)C(=O)N[C@H](Cc1ccccc1)C(=O)C(=O)NCc1ccccn1 [Compound 79],0.0109 ± 0.0001 µM
